# According to ChEMBL document CHEMBL1201862, “PubChem BioAssay data set” (2004):
# Where “and” joins values, the source holds several entries; their conditions need not be identical. Identical values can stand only once.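 Test compounds were applied to cells in 96-well plates for 48 hours at 5 doses. Abbreviation: GI50, concentration required for 50% inhibition of growth.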 Calls of active or inactive are those of the source. Rule as the data show it: active = GI50 up to about 1.1 µM and inactive = higher.
# How the values were obtained:
# Assay in all cases: NCI-60 cell line screen, 48 h
# ACHN = test system: ACHN
# BT-549 = test system: BT-549
# COLO 205 = test system: COLO 205
# HCT-116 = test system: HCT-116
# HOP-92 = test system: HOP-92
# IGROV-1 = test system: IGROV-1
# LOX IMVI = test system: LOX IMVI
# M14 = test system: M14
# MCF7 = test system: MCF7
# MDA-MB-231 = test system: MDA-MB-231
# MDA-MB-435 = test system: MDA-MB-435
# MOLT-4 = test system: MOLT-4
# NCI-H460 = test system: NCI-H460
# OVCAR-5 = test system: OVCAR-5
# SF-539 = test system: SF-539
# SK-MEL-2 = test system: SK-MEL-2
# SNB-75 = test system: SNB-75
# SW-620 = test system: SW-620
# U-251 = test system: U-251
# NCI-H522 = test system: NCI-H522
Compound,GI50 (ACHN),GI50 (BT-549),GI50 (COLO 205),GI50 (HCT-116),GI50 (HOP-92),GI50 (IGROV-1),GI50 (LOX IMVI),GI50 (M14),GI50 (MCF7),GI50 (MDA-MB-231),GI50 (MDA-MB-435),GI50 (MOLT-4),GI50 (NCI-H460),GI50 (OVCAR-5),GI50 (SF-539),GI50 (SK-MEL-2),GI50 (SNB-75),GI50 (SW-620),GI50 (U-251),GI50 (NCI-H522)
O=C(O)C(CCc1ccccc1)N1C(=O)c2ccccc2C1=O (stereo not drawn),> 100 µM (inactive),> 100 µM (inactive),> 100 µM (inactive),> 100 µM (inactive),> 100 µM (inactive),> 100 µM (inactive),> 100 µM (inactive),> 100 µM (inactive),> 100 µM (inactive),> 100 µM (inactive),> 100 µM (inactive),> 100 µM (inactive),> 100 µM (inactive),> 100 µM (inactive),> 100 µM (inactive),> 100 µM (inactive),> 100 µM (inactive),> 100 µM (inactive),> 100 µM (inactive),–
Cn1c2ccccc2n2c3ncccc3/c(=N/CCCC(=O)O)c(C#N)c12,> 100 µM (inactive),> 100 µM (inactive),> 100 µM (inactive),> 100 µM (inactive),–,> 100 µM (inactive),> 100 µM (inactive),> 100 µM (inactive),> 100 µM (inactive),> 100 µM (inactive),> 100 µM (inactive),> 100 µM (inactive),> 100 µM (inactive),> 100 µM (inactive),–,> 100 µM (inactive),> 100 µM (inactive),> 100 µM (inactive),> 100 µM (inactive),> 100 µM (inactive)
Nc1nc(Nc2ccc(Cl)cc2)sc1C(=O)c1cccs1,36.3 µM (inactive),40.5 µM (inactive),> 100 µM (inactive),14.7 µM (inactive),44.5 µM (inactive),39.6 µM (inactive),> 100 µM (inactive),> 100 µM (inactive),33.4 µM (inactive),40 µM (inactive),> 100 µM (inactive),> 100 µM (inactive),17.9 µM (inactive),> 100 µM (inactive),21.6 µM (inactive),98.9 µM (inactive),–,59 µM (inactive),14.7 µM (inactive),–
Cc1nc2cc(F)c(F)cc2[nH]c1=O,> 100 µM (inactive),> 100 µM (inactive),> 100 µM (inactive),> 100 µM (inactive),> 100 µM (inactive),–,> 100 µM (inactive),> 100 µM (inactive),> 100 µM (inactive),> 100 µM (inactive),> 100 µM (inactive),> 100 µM (inactive),> 100 µM (inactive),> 100 µM (inactive),> 100 µM (inactive),> 100 µM (inactive),> 100 µM (inactive),> 100 µM (inactive),> 100 µM (inactive),–
NC(CCCCNC(=O)CNC(=O)OCc1ccccc1)C(=O)NC(CCCCNC(=O)CNC(=O)OCc1ccccc1)C(=O)NC(CCCCNC(=O)CNC(=O)OCc1ccccc1)C(=O)NC(CCCCNC(=O)CNC(=O)OCc1ccccc1)C(=O)NC(CCCCNC(=O)CNC(=O)OCc1ccccc1)C(=O)NC(CCCCNC(=O)CNC(=O)OCc1ccccc1)C(=O)O (stereo not drawn),> 75 µM (inactive),> 75 µM (inactive),–,> 75 µM (inactive),–,> 75 µM (inactive),> 75 µM (inactive),> 75 µM (inactive),> 75 µM (inactive),> 75 µM (inactive),> 75 µM (inactive),> 75 µM (inactive),> 75 µM (inactive),> 75 µM (inactive),–,> 75 µM (inactive),> 75 µM (inactive),> 75 µM (inactive),> 75 µM (inactive),16.9 µM (inactive)
Cc1ccc(S(=O)(=O)SC/C=C\CSS(=O)(=O)c2ccc(C)cc2)cc1,29.6 µM (inactive) and 25.1 µM (inactive),9.59 µM (inactive),–,–,14.4 µM (inactive) and 16.2 µM (inactive),39.2 µM (inactive) and 28.1 µM (inactive),–,13.8 µM (inactive) and 17.4 µM (inactive),3.51 µM (inactive),16.4 µM (inactive),5.82 µM (inactive),–,30.3 µM (inactive) and 35.6 µM (inactive),–,–,47 µM (inactive),19.1 µM (inactive) and 36.6 µM (inactive),–,15.8 µM (inactive) and 15.9 µM (inactive),–
O=[N+]([O-])c1ccc(OP(=O)(O)OCC2OC(CP(=O)(O)O)C(O)C2O)cc1 (stereo not drawn),> 100 µM (inactive),> 100 µM (inactive),> 100 µM (inactive),> 100 µM (inactive),> 100 µM (inactive),> 100 µM (inactive),> 100 µM (inactive),> 100 µM (inactive),> 100 µM (inactive),> 100 µM (inactive),> 100 µM (inactive),> 100 µM (inactive),> 100 µM (inactive),> 100 µM (inactive),> 100 µM (inactive),> 100 µM (inactive),–,> 100 µM (inactive),> 100 µM (inactive),> 100 µM (inactive)
COC(CNC(=O)CNC(=O)c1ccc(C(F)(F)F)cc1)OC,> 100 µM (inactive),> 100 µM (inactive),> 100 µM (inactive),> 100 µM (inactive),> 100 µM (inactive),> 100 µM (inactive),–,> 100 µM (inactive),> 100 µM (inactive),> 100 µM (inactive),> 100 µM (inactive),> 100 µM (inactive),> 100 µM (inactive),> 100 µM (inactive),> 100 µM (inactive),> 100 µM (inactive),> 100 µM (inactive),> 100 µM (inactive),> 100 µM (inactive),> 100 µM (inactive)
CCNC(=S)N/N=C/c1cc([N+](=O)[O-])ccc1O,25.8 µM (inactive),36.9 µM (inactive),28.3 µM (inactive),16.9 µM (inactive),–,22.4 µM (inactive),15.7 µM (inactive),33.7 µM (inactive),0.307 µM (active),33 µM (inactive),37.2 µM (inactive),8.73 µM (inactive),9.27 µM (inactive),> 100 µM (inactive),35.4 µM (inactive),> 100 µM (inactive),52 µM (inactive),40.5 µM (inactive),16.9 µM (inactive),21.5 µM (inactive)
CC1=CC(=O)c2ccc3c4ccccc4n(C)c3c2C1=O,55.6 µM (inactive),41.8 µM (inactive),> 85.9 µM (inactive),> 88.5 µM (inactive),> 46.5 µM (inactive),16.9 µM (inactive),–,17.8 µM (inactive),12 µM (inactive),70.6 µM (inactive),17.1 µM (inactive),19.4 µM (inactive),29.4 µM (inactive),> 100 µM (inactive),> 100 µM (inactive),16.2 µM (inactive),54.1 µM (inactive),92.3 µM (inactive),49 µM (inactive),28.4 µM (inactive)
COCO[C@@H]1C[C@H]2C(=O)N(COC)c3ccccc3C(=O)N2C1,> 100 µM (inactive),> 100 µM (inactive),> 100 µM (inactive),> 100 µM (inactive),–,> 100 µM (inactive),> 100 µM (inactive),> 100 µM (inactive),> 100 µM (inactive),> 100 µM (inactive),> 100 µM (inactive),> 100 µM (inactive),–,> 100 µM (inactive),> 100 µM (inactive),> 100 µM (inactive),> 100 µM (inactive),> 100 µM (inactive),> 100 µM (inactive),> 100 µM (inactive)
Cc1nnc2sc(-c3ccc([N+](=O)[O-])o3)nn12,11.2 µM (inactive),10.7 µM (inactive),13.2 µM (inactive),6.46 µM (inactive),15.9 µM (inactive),15.7 µM (inactive),3.56 µM (inactive),9.91 µM (inactive),7.18 µM (inactive),14 µM (inactive),4.37 µM (inactive),3.15 µM (inactive),17.9 µM (inactive),18.5 µM (inactive),4.84 µM (inactive),10.4 µM (inactive),–,4.85 µM (inactive),14.7 µM (inactive),3.03 µM (inactive)
CC(=O)NC1C(OCc2ccccc2)OC(CO)C(O)C1OC(C)C(=O)NC(C(=O)NC(CCC(=O)NCCCC(=O)Nc1ccc2c(c1)CN1C(=O)c3ccccc3C1=N2)C(N)=O)C(C)C (stereo not drawn),> 100 µM (inactive),> 100 µM (inactive),> 100 µM (inactive),> 100 µM (inactive),> 100 µM (inactive),> 100 µM (inactive),> 100 µM (inactive),> 100 µM (inactive),> 100 µM (inactive),> 100 µM (inactive),> 100 µM (inactive),> 100 µM (inactive),> 100 µM (inactive),> 100 µM (inactive),> 100 µM (inactive),> 100 µM (inactive),> 100 µM (inactive),> 100 µM (inactive),> 100 µM (inactive),–
COC(=O)[C@H](Cc1ccccc1)NC(=O)CCCCCCC(=O)NO,> 100 µM (inactive),> 100 µM (inactive),54.5 µM (inactive),5.15 µM (inactive),17.3 µM (inactive),17.7 µM (inactive),15.4 µM (inactive),20.9 µM (inactive),46.1 µM (inactive),21.6 µM (inactive),13.5 µM (inactive),2.7 µM (inactive),12.3 µM (inactive),4.18 µM (inactive),20.6 µM (inactive),4.6 µM (inactive),–,11.6 µM (inactive),17.3 µM (inactive),4.68 µM (inactive)
